Drawing on patent US20140057895A1, “INDAZOLE- AND PYRROLOPYRIDINE-DERIVATIVE AND PHARMACEUTICAL USE THEREOF” (priority 2011, published 2014), this text covers IC50, Emax and EC50 for 17 molecules.

The target in assay [1] is T1, 5-HT4 receptor (Cavia porcellus, UniProt O70528).
T1 construct: striatum was isolated which was cryopreserved at −80° C. until use; from tissue; host or cells: guinea pig (Slc-Hartley) striatum membranes
Nature of the assay: Test Example 1: Serotonin 4 (5-HT4) receptor binding assay, [3H]-GR113808, guinea pig striatum membranes (Table 96). The note with it: Guinea pig 5-HT4 receptor binding assay, [3H]-GR113808, striatum membranes; mean value of each group. Here is the method:
The 5-HT4 receptor binding assay and preparations of receptor membrane preparations herein were carried out according to a method of Grossman et al. [see, British J. Pharmacol., (1993) 109, 618].
Slc-Hartley guinea pigs (body weight 300 g to 400 g) were decapitated to remove brain rapidly, and striatum was isolated which was cryopreserved at −80° C. until use. To the obtained tissues were added fifteen fold of Hepes buffer (50 mM, pH 7.4, 4° C.), and the mixture was homogenized by Teflon (trademark) homogenizer and centrifuged at 48,000×g (4° C.) for 15 minutes. To the resulting precipitate was added Hepes buffer (1 ml) to 30 mg by wet weight of tissues, and the mixture was suspended to give receptor membrane preparations.
To an assay tube were added 0.1 nM [^3H]-GR113808 {chemical name: [1-[2-(methylsulfonylamino)ethyl]-4-piperidinyl]methyl 1-methylindole-3-carboxylate}, receptor membrane preparations, and Hepes buffer (50 mM, pH 7.4, 4° C., 1 ml) containing test compounds or 30 μM serotonin; and the mixture was incubated at 37° C. for 30 minutes. On quenching the reaction, the mixture was rapidly filtered on whatman GF/B filter, which was presoaked in 0.1% polyethyleneimine for 1 hour, by using Brandel cell Harvester, and washed with ice-cooled 50 mM Tris-HCl (pH 7.7, 4 ml) three times. To the filter after filtration was added a liquid scintillator (Ecoscint), and then a radioactivity was determined by a liquid scintillation counter.
50% Inhibition concentrations (IC50) were determined from inhibition rates of test compounds to specific bindings which were obtained by subtracting nonspecific bindings from total binding amounts of [^3H]-GR113808.
(§1) In the following table, the compounds used in the test are shown in numbers which correspond to the Example numbers above where the preparations of the compounds are described.

Assay [2] deals with T2, human 5-HT4b receptor (Homo sapiens, UniProt Q13639).
T2 construct: expressed in transfected cells; host or cells: CHO cells (G418 selection)
T2 sequence (Q13639 whole entry): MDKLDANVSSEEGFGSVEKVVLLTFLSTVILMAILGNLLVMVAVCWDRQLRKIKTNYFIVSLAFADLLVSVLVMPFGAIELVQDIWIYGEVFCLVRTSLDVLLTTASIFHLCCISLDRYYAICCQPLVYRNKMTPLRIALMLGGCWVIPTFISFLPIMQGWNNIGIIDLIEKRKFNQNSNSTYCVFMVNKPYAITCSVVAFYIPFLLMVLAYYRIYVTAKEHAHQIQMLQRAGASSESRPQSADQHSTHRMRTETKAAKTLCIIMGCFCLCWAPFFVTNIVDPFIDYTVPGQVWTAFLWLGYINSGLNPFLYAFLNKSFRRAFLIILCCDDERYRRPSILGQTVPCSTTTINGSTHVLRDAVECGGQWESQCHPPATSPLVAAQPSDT
Kind of assay: Test Example 2: Serotonin 4 (5-HT4) receptor agonist activity assay, cAMP HTRF in CHO cells (Table 97). Type of assay: cell-based. Conditions: cAMP in CHO cells expressing human 5-HT4b receptor, mean value; for Emax: 0.25 h, intrinsic activity, maximal activity of 5-HT defined as 100%, read-out: IA (%); for EC50: concentration showing 50% of IA. The protocol:
The cAMP measurement test used herein was carried out by using CISBIO HTRF (trademark) cAMP Hirange kit according to the manufacturer's instructions attached therewith.
CHO cells expressing human 5-HT4b receptor were incubated in Medium 1 [DMEM/1% NEAA, 1% penicillin/streptomycin (P/S), 0.2 mg/mL GENETICIN (G418), 10% FBS] at 37° C. under 5% CO2 condition. Then, the cells were put into Medium 2 (DMEM/10000 cut FBS, G-418, P/S, NEAA) for 1 to 2 hours, and collected by treating with trypsin containing EDTA. The collected cells were suspended in Assay Buffer 1 [100 mM Hanks/HEPES buffer (pH 7.4)], the suspended cells were mixed with the testing compound on 384-well plates, and the cells were incubated at 31° C. for 15 minutes. To the cells were added cAMP-cryptate solution and cAMP-d2 solution, and they were incubated at room temperature for 1 hour. Then, time-resolved fluorescence was measured by En Vision (excitation wavelength: 330 nm, fluorescence wavelength: 620/665 nm). An intrinsic activity of the compound [IA (%)] and a concentration showing 50% of IA [EC50 (nM)] were calculated from the obtained results. In particular, the intrinsic activity (IA) was calculated on the basis of the maximal activity of 5-HT (measured from 10^−11 M to 10^−7 M) defined as 100%.
as §1
(In general: TR-FRET usually uses a lanthanide donor and a delayed reading to cut background.)

Assay [3] concerns the target T1, 5-HT4 receptor. Nature of the assay: Test Example 3: Guinea pig 5-HT4 receptor binding assay, [3H]-GR113808, striatum membranes (Table 98). Conditions: Guinea pig 5-HT4 receptor binding assay, [3H]-GR113808, striatum membranes; mean value of each group; read-out: IC50. A digest of the protocol: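 Striatal membranes from Slc-Hartley guinea pigs were incubated with 0.1 nM [3H]-GR113808 and test compounds in 50 mM Hepes pH 7.4 at 37° C for 30 min; nonspecific binding was defined with 30 μM serotonin. Bound radioactivity was collected by filtration, and IC50 was derived from inhibition of specific binding.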

The target in assay [4] is T2, human 5-HT4b receptor. Nature of the assay: Test Example 4: Serotonin 4 (5-HT4) receptor agonist activity assay, cAMP HTRF in CHO cells (Table 100). It counts as cell-based. The note with it: mean value; for Emax: CHO, 0.25 h, intrinsic activity, maximal activity of 5-HT defined as 100%, read-out: IA (%); for EC50: concentration showing 50% of IA. Put shortly: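 CHO cells expressing human 5-HT4b receptor, serum-reduced for 1–2 h, were suspended in Hanks/HEPES pH 7.4 and exposed to compound for 15 min at 31° C. cAMP detected by HTRF (cryptate/d2, 1 h RT, 620/665 nm). EC50 and intrinsic activity relative to maximal 5-HT response (10^−11 to 10^−7 M) set at 100%.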

Assay [5] deals with T3, Human 5-HT4 receptor (5-HT4b) (Homo sapiens, UniProt Q13639).
T3 construct: expressed in transfected cells; membrane preparation
T3 sequence (Q13639 whole entry): as above
Nature of the assay: Test Example 3: Human 5-HT4 receptor binding assay, membranes of CHO-K1 cells stably expressing 5-HT4b receptors (Table 99). Conditions: mean value of each group. Put shortly:
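Membranes from CHO-K1 cells stably expressing 5-HT4b incubated with 0.1 nM [3H]-GR113808 in 50 mM Hepes pH 7.4, 37 °C, 30 min; nonspecific binding with 30 μM serotonin. Bound label collected by filtration and scintillation counting; IC50 from inhibition of specific binding.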

SMILES strings stand for the structures. Structures can show the parent of a compound that is named as a salt.

One may read the IC50 as the concentration needed to halve the response being measured. What is called EC50 is the concentration at which the effect is half-maximal.

T1 sequence (O70528 whole entry): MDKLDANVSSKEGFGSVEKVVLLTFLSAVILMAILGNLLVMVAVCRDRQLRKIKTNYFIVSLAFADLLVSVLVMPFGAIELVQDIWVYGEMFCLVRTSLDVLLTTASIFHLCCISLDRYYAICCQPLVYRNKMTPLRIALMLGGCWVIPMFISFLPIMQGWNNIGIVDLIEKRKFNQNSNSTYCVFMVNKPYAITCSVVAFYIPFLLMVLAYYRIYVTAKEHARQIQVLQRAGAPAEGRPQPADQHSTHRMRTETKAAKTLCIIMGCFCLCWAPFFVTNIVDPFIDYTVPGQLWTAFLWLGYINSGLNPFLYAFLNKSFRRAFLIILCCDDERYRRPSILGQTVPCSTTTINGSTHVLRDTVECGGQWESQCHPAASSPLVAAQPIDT

In assay [1], `COCCCN1CCC(c2nc(-n3nc(C(C)C)c4ccccc43)no2)CC1` [Example 85, 1-{5-[1-(3-methoxypropyl)piperidin-4-yl]-1,2,4-oxadiazol-3-yl}-3-(propan-2-yl)-1H-indazole] returned an IC50 of 31.1 nM. Besides, in assay [2], the Emax is 125% and the EC50 turned out to be 8.3 nM.
For `CCc1nn(-c2noc(C3CCN(CCCOC)CC3)n2)c2ccccc12` [Example 87, 3-ethyl-1-{5-[1-(3-methoxypropyl)piperidin-4-yl]-1,2,4-oxadiazol-3-yl}-1H-indazole trifluoroacetate], the IC50 in assay [1] is 21 nM. For the same molecule, in assay [2], the Emax is 80% and it took 9.4 nM to reach a half-maximal effect (EC50).
Consider `COCCCN1CCC(c2nc(-n3nc(C4CC4)c4ccccc43)no2)CC1` [Example 88, 3-cyclopropyl-1-{5-[1-(3-methoxypropyl)piperidin-4-yl]-1,2,4-oxadiazol-3-yl}-1H-indazole trifluoroacetate], for which the concentration for half-maximal inhibition (IC50) in assay [1] is 33.5 nM. In addition, in assay [2], the Emax is 37% and the response was half-maximal at 16.4 nM (EC50).
`CCc1nn(-c2noc(C3CCN(CCCOC)CC3)n2)c2cc(F)ccc12` [Example 92, 3-ethyl-6-fluoro-1-{5-[1-(3-methoxypropyl)piperidin-4-yl]-1,2,4-oxadiazol-3-yl}-1H-indazole] showed an IC50 in assay [1] below 20 nM. In assay [2], the Emax amounted to 92% and the EC50 is 6.5 nM.
Take `CCc1nn(-c2noc(C3CCN(CCCOC)CC3)n2)c2c(F)cccc12` [Example 95, 3-ethyl-7-fluoro-1-{5-[1-(3-methoxypropyl)piperidin-4-yl]-1,2,4-oxadiazol-3-yl}-1H-indazole]: the IC50 in assay [1] is below 20 nM. Further, in assay [2], the Emax was determined as 43% and the EC50 worked out at 3.7 nM.
In the case of `CC(C)CN1CCC(c2nc(-n3nc(C(C)C)c4ccccc43)no2)CC1` [Example 98, 1-{5-[1-(2-methylpropyl)piperidin-4-yl]-1,2,4-oxadiazol-3-yl}-3-(propan-2-yl)-1H-indazole trifluoroacetate], in assay [1], the half-maximal inhibitory concentration (IC50) came to 32.1 nM. Further, in assay [2], the Emax stood at 110% and the EC50 came to 15.5 nM.
The corresponding values for `CCc1nn(-c2noc(C3CCN(C(C)CC)CC3)n2)c2ccccc12` (centres unmarked) [Example 101, 1-{5-[1-(butan-2-yl)piperidin-4-yl]-1,2,4-oxadiazol-3-yl}-3-ethyl-1H-indazole trifluoroacetate] are below 20 nM, 70% and 8.9 nM.
In the case of `CCC(C)N1CCC(c2nc(-n3nc(C4CC4)c4ccccc43)no2)CC1` (centres unmarked) [Example 102, 1-{5-[1-(butan-2-yl)piperidin-4-yl]-1,2,4-oxadiazol-3-yl}-3-cyclopropyl-1H-indazole trifluoroacetate], the 50% inhibitory concentration (IC50) in assay [1] is below 20 nM. In assay [2], the Emax is 26% and the EC50 amounted to 8 nM.
Take `CCc1nn(-c2noc(C3CCN(CC(C)C)CC3)n2)c2ccccc12` [Example 103, 3-ethyl-1-(5-[1-(2-methylpropyl)piperidin-4-yl]-1,2,4-oxadiazol-3-yl}-1H-indazole]: in assay [1], the concentration for half-maximal inhibition (IC50) was below 20 nM. Further, in assay [2], the Emax turned out to be 59% and a half-maximal effect (EC50) was put at 11 nM.
The molecule `CCc1nn(-c2noc(C3CCN(CC4CC4)CC3)n2)c2ccccc12` [Example 112, 1-{5-[1-(cyclopropylmethyl)piperidin-4-yl]-1,2,4-oxadiazol-3-yl}-3-ethyl-1H-indazole trifluoroacetate] came in with an IC50 in assay [1] of 26.4 nM. Also, in assay [2], the Emax was 73% and the EC50 turned out to be 24.9 nM.
The matching figures for `CCC(C)N1CCC(c2nc(-n3nc(C4CCC4)c4ccccc43)no2)CC1` (centres unmarked) [Example 114, 1-{5-[1-(butan-2-yl)piperidin-4-yl]-1,2,4-oxadiazol-3-yl}-3-cyclobutyl-1H-indazole trifluoroacetate]: 26.2 nM, 68% and 53 nM.
`CC(C)CN1CCC(c2nc(-n3nc(C4CCC4)c4ccccc43)no2)CC1` [Example 115, 3-cyclobutyl-1-{5-[1-{2-methylpropyl)piperidin-4-yl]-1,2,4-oxadiazol-3-yl}-1H-indazole trifluoroacetate]: in assay [1], the IC50 is 40.2 nM. Besides, in assay [2], the Emax was 58% and the response was half-maximal at 153 nM (EC50).
In assay [1], `CCCN1CCC(c2nc(-n3nc(C(C)C)c4ccccc43)no2)CC1` [Example 117, 3-(propan-2-yl)-1-[5-(1-propylpiperidin-4-yl)-1,2,4-oxadiazol-3-yl]-1H-indazole trifluoroacetate] had an IC50 of 25.9 nM. Also, in assay [2], the Emax came out at 83% and the EC50 is 29.5 nM.
In the case of `CCc1nn(-c2noc(C3CCN(CC4CN(C(=O)COC)C4)CC3)n2)c2c(F)cccc12` [Example 224, 1-[3-({4-[3-(3-ethyl-7-fluoro-1H-indazol-1-yl)-1,2,4-oxadiazol-5-yl]piperidin-1-yl}methyl)azetidin-1-yl]-2-methoxyethanone hydrochloride], the concentration for half-maximal inhibition (IC50) in assay [1] is below 20 nM. Besides, the IC50 in assay [3] is below 20 nM. In assay [4], the Emax is 73.9% and the concentration for a half-maximal effect (EC50) came out at 6.7 nM.
For `CCN[C@H]1C[C@@H](c2nc(-n3nc(CC)c4ccc(F)cc43)no2)C1` [Example 278, cis-N-ethyl-3-[3-(3-ethyl-6-fluoro-1H-indazol-1-yl)-1,2,4-oxadiazol-5-yl]cyclobutanamine], the IC50 in assay [1] is below 20 nM.
Take `CC(C)c1nn(-c2noc([C@H]3CC[C@@H](NCCC4CN(S(C)(=O)=O)C4)CC3)n2)c2c(F)cccc12` [Example 617, cis-4-{3-[7-fluoro-3-(propan-2-yl)-1H-indazol-1-yl]-1,2,4-oxadiazol-5-yl}-N-{2-[1-(methylsulfonyl)azetidin-3-yl]ethyl}cyclohexanamine]: the 50% inhibitory concentration (IC50) in assay [5] stood at 24.3 nM. In addition, in assay [4], the Emax was determined as 104% and the half-maximal effective concentration (EC50) is 8.4 nM.
For the molecule `CC(C)c1nn(-c2noc([C@H]3CC[C@@H](NCC4CCN(S(C)(=O)=O)CC4)CC3)n2)c2c(F)cccc12` [Example 618, cis-4-{3-[7-fluoro-3-(propan-2-yl)-1H-indazol-1-yl]-1,2,4-oxadiazol-5-yl}-N-{[1-(methylsulfonyl)piperidin-4-yl]methyl}cyclohexanamine], in assay [5], the half-maximal inhibitory concentration (IC50) is below 20 nM. Also, in assay [4], the Emax was 32% and it took 6.2 nM to reach a half-maximal effect (EC50).
